Results: patent US20250270206A1, “COMPOSITIONS AND METHODS FOR INHIBITION OF RAS” (TheRas, Inc., priority 2022, published 2025)

How the values were obtained:
[1] = biological target: T1, GppNHp-loaded KRAS4b (amino acids 1-169) G12C/C118S (Homo sapiens, UniProt P01116, C118S/G12C); assay: MALDI-TOF MS covalent Cys12 modification, GppNHp-loaded KRAS G12C; type: binding; details: 15 minutes reaction time, 1 μM protein, 1:2.5 protein to compound ratio
T1 construct: KRAS4b (amino acids 1-169) G12C/C118S protein; made in house
Procedure: (§1) MALDI-TOF MS analysis was performed using 1 μM protein target, and 1:2.5 protein to compound ratio was used.
(§2) Reaction: 1 μM of GppNHp, GTP, or GDP-loaded KRAS4b (amino acids 1-169) G12C/C118S protein (produced in-house by Protein Expression Laboratory, FNLCR/Leidos Biomed) in 20 mM 4-(2-hydroxyethyl)-1-piperazineethanesulfonic acid (HEPES) buffer containing 150 mM NaCl, 1 mM MgCl2, pH 7.3 was prepared freshly before assay. Ten-μL aliquots of protein were dispensed onto low volume 384-well plate, then 375 nL DMSO, and 25 nL of tested compounds from 5 mM DMSO stocks were added to appropriate wells using ECHO 555 acoustic liquid handler (Labcyte Inc.). For each reaction/assay, three blanks were prepared by mixing 10 μL of protein solution with 400 nL DMSO. The contents of the wells were carefully mixed by aspiration, and then each plate was sealed with an adhesive cover, centrifuged at 2000 g for 1 minute, and kept in the dark at room temperature until 5 min, 15 min, 30 min, 2 h, or 6 h collections.
(§3) Target pretreatment: Before each assay MALDI target (Bruker MPT 384 ground steel BC) was pre-treated by pipetting on each spot 0.75 μL of saturated sinapinic acid in acetonitrile (ACN).
(§4) Sample preparation: At collection time point, 2 μL of reaction mixtures were pipetted out into 20 μL MALDI matrix solution (saturated solution of sinapinic acid in 1:1 ACN:water solution containing 0.75% trifluoroacetic acid (TFA)) deposited on 384 well polypropylene plate. Resulting solution was mixed by aspiration, centrifuged at 2000 g for 1 minute, then 1 μL aliquots were dispensed on pre-treated MALDI target using Beckman Coulter Biomek FX^P 96/384-Span-8 Laboratory Automation Workstation. Finally, the MALDI target was dried under mild vacuum to produce spots with fine crystalline structure.
(§5) Measurements: MALDI-TOF measurements were performed on a Bruker Daltonics rapifleX Tissuetyper TOF-TOF mass spectrometer using linear mode and mass range from 18.6 to 21.6 kDa. Detector gain was set to 3.3× (483 V), sample rate to 5 GS/s, real time smoothing to medium (175 MHz), laser smart beam pattern was set to: “MS Thin Layer M5”, and the laser frequency was 10000 Hz. Spectra were automatically collected using custom AutoXecute method. Laser power was auto adjusted using fuzzy control. The peak selection range was set to be between 19000 and 21500 Da. Peak evaluation uses half width parameter set to be smaller than 40 Da for processed spectrograms (centroid peak detection: smoothed by SavitzkyGolay algorithm using 7 m/z width and 2 cycles; baseline was subtracted using median algorithm with flatness 1 and median level 0.01). Fuzzy control used Proteins/Oligonucleotides protocol with minimum half width 1/10 times above threshold. Up to 40000 satisfactory shots were collected in 10000 shot steps. Dynamic termination was implemented to finish data collection when peak signal/noise ratio reached a value of 50.
(§6) Spectra processing: Spectra were smoothed by SavitzkyGolay algorithm using 7 m/z width and three cycles. Centroid peak detection algorithm was used with signal to noise threshold set to 6, relative intensity threshold 4%, peak width 10 m/z and median baseline subtraction using flatness of 1 and median level of 0.01. Peak intensity and area under the peak were evaluated and recorded for all peaks between 19,300 Da and 21,550 Da.
(§7) Calculation of percent modification: Percent modification was calculated as a ratio of peak height for protein modified by compound to sum of peak height of remaining protein plus peak height for protein modified by compound. If multiple modifications were observed each was calculated as a ratio of peak height for given modification versus sum of peak heights for all observed protein species. Data reported in Table 5 are from the 15 minutes reaction time point.

[2] = test system: pERK in NCI-H358 cells; assay: Cell-based pERK HTRF assay; details: Homo sapiens, 0.5 h, 30 min incubation
Procedure: pERK HTRF assays (Perkin Elmer) were used to determine the effectiveness of compounds of the present disclosure in disrupting KRAS G12C protein/effector signaling in cells.
On Day 1, cells (NCI-H358) were seeded into 96-well plates at 4×10^4 cells/well in complete growth media (RPMI, 10% FBS).
On Day 2, cells were treated with compounds at 0.25% DMSO. The source plate was created with compounds diluted in media at 5-fold the final assay concentration. The compounds were run in a 9-point concentration curve starting at 75 μM, with a 3-fold dilution between concentrations. 20 μL was transferred onto the cell plates (final volume in wells was 100 μL). Plates were harvested after 30 min incubation by aspirating media and adding kit-supplied 1× supplemented lysis buffer to all wells (75 μL per well). Plates were then placed on a plate shaker and incubated at 850 rpm for an additional 30 min.
Antibody mixture solution was prepared by diluting aliquoted d2 and Eu Cryptate antibodies 1:20 in kit supplied detection buffer, then mixed the diluted antibodies solutions (1:1 v:v). 4 μL of this solution was then added to a 384-well detection plate (Perkin Elmer; 6008230).
Samples were homogenized by pipetting up and down and then transferred (16 μL of cell lysates) from the 96-well cell culture plate to two wells of the HTRF 384-well detection plate containing the antibody solution. Plates were centrifuged (524 g for 1 min) and allowed to incubate between 4 and 24 h at room temperature. Maximum signal is reached after 4 h incubation time and remains stable over a period of 24 hours. Therefore, readings can be made between 4 and 24 h of incubation. Plates were centrifuged again (524 g for 1 min) and analyzed on the EnVision plate reader using the following settings: Excitation 320 nm, Bandwidth 75 nm; Emission 615 nm, Bandwidth 85 nm; Gain 100%; Flashes 100; Lag 60 μs.

[3] = biological target: T2, Avi-KRAS G12C (1-169) GppNHp/RAF1 RBD-3×FLAG (52-151) (Homo sapiens, UniProt P01116, G12C); assay: KRAS G12C-effector (RAF1 RBD) protein:protein interaction HTRF disruption assay; type: biochemical; details: PPI HTRF
T2 construct: Avi-KRAS G12C (1-169) GppNHp
Procedure: A protein:protein interaction (PPI) Homogeneous Time Resolved Fluorescence (HTRF) assay was used to determine the effectiveness of compounds of the present disclosure in disrupting KRAS G12C protein and effector (RAF1) binding.
The HTRF assay used the following reagents and proteins: 50 nM Avi-KRAS G12C (1-169) GppNHp/RAF1 RBD-3×FLAG (52-151); 75 nM Avi-RAF1 RBD-3×FLAG; Assay Buffer: 50 mM Tris pH 7.5, 100 mM NaCl, 5 mM MgCl2, 0.1% BSA, 0.01% Tween 20, 10% DMSO; Bead Buffer: 50 mM Tris pH 7.5, 0.01% Tween 20; Assay volume: 20 μL (384 well plate-low volume format); and Compound titration: 30-0.02 μM, 3× dilution series.
The HTRF assay employed the following protocol:
Compounds were dispensed in assay plate (384-well, Grenier Bione #784075) using Echo (model 555) with dose response settings: 200 nL final volume, titration from 100 μM as a 10-point dilution series. KRAS proteins were prepared in assay buffer, and dispensed on plates, 5 μL per well, then incubated for 1 h at room temperature, with 700 rpm shaking. RAF1 RBD were prepared in assay buffer, dispensed onto plates, 5 μL per well, and then incubated for 1 h at room temperature, with 700 rpm shaking. Reagent mix was then prepared and dispensed on plates, 10 μL per well, and then incubated for 1 h at room temperature, with 700 rpm shaking.
Plates were analyzed on an Envision plate reader using the following setting: Excitation 320 nm, Bandwidth 75 nm, Emission 615 nm, Bandwidth 85 nm; Gain 100%; Flashes 100; Lag 60 μs. Data was reported as percentage of activity, with DMSO as 100%. Data was plotted and analyzed using Prism 8.

[4] = biological target: T3, GDP-loaded KRAS4b (amino acids 1-169) G12C/C118S (Homo sapiens, UniProt P01116, C118S/G12C); assay: MALDI-TOF MS covalent Cys12 modification, GDP-loaded KRAS G12C; type: binding; details: 15 minutes reaction time, 1 μM protein, 1:2.5 protein to compound ratio
T3 construct: KRAS4b (amino acids 1-169) G12C/C118S protein; made in house
Procedure: as §1, §2, §3, §4, §5, §6, §7

[5] = biological target: T4, GTP-loaded KRAS4b (amino acids 1-169) G12C/C118S (Homo sapiens, UniProt P01116, C118S/G12C); assay: MALDI-TOF MS covalent Cys12 modification, GTP-loaded KRAS G12C; type: binding; details: 15 minutes reaction time, 1 μM protein, 1:2.5 protein to compound ratio
T4 construct: KRAS4b (amino acids 1-169) G12C/C118S protein; made in house
Procedure: as §1, §2, §3, §4, §5, §6, §7

| SMILES | GppNHp-KRAS G12C percent of modification [1] | IC50 [2] [nM] | IC50 [3] [µM] | GDP-KRAS G12C percent of modification [4] | GTP-KRAS G12C percent of modification [5] |
| --- | --- | --- | --- | --- | --- |
| C=CC(=O)N1CC[C@@H](N(C)c2nc(OC[C@@]34CCCN3C[C@H](F)C4)nc3c(F)c(-c4ccc(F)c5sc(N)nc45)ncc23)C1 [Compound 4] | A (percent of modification ≥70%) | > 1000 | ≤ 0.5 | A (percent of modification ≥70%) | – |
| C=CC(=O)N1CCC(N(C)c2nc(OC[C@@H]3CC4(CC4)CN3C)nc3c(F)c(-c4ccc(F)c5sc(N)c(C#N)c45)ncc23)[C@H]1COC (some centres unmarked) [Compound 21] | A (percent of modification ≥70%) | 100 to 1000 | – | A (percent of modification ≥70%) | A (percent of modification ≥70%) |
| C=CC(=O)N1CC[C@@H](N(C)c2nc(OC[C@@H]3CC4(CC4)CN3C)nc3c(F)c(-c4ccc(F)c5sc(N)c(C#N)c45)ncc23)[C@H]1COC [Compound 21] | – | – | ≤ 0.5 | – | – |
| C=CC(=O)N1CCC(N(C)c2nc(OC[C@@H]3CCCN3C)nc3c(F)c(-c4ccc(F)c5sc(N)c(C#N)c45)ncc23)[C@H]1C (some centres unmarked) [Compound 22] | A (percent of modification ≥70%) | 100 to 1000 | – | A (percent of modification ≥70%) | A (percent of modification ≥70%) |
| C=CC(=O)N1CC[C@@H](N(C)c2nc(OC[C@@H]3CCCN3C)nc3c(F)c(-c4ccc(F)c5sc(N)c(C#N)c45)ncc23)[C@H]1C [Compound 22] | – | – | ≤ 0.5 | – | – |
| C=CC(=O)N1CCC(N(C)c2nc(OC[C@@H]3CC4(CC4)CN3C)nc3c(F)c(-c4ccc(F)c5sc(N)c(C#N)c45)ncc23)[C@H]1C (some centres unmarked) [Compound 24] | A (percent of modification ≥70%) | 100 to 1000 | – | A (percent of modification ≥70%) | A (percent of modification ≥70%) |
| C=CC(=O)N1CC[C@@H](N(C)c2nc(OC[C@@H]3CC4(CC4)CN3C)nc3c(F)c(-c4ccc(F)c5sc(N)c(C#N)c45)ncc23)[C@H]1C [Compound 24] | – | – | ≤ 0.5 | – | – |
| C=CC(=O)N1CCC(N(C)c2nc(OC[C@@H]3CCCN3C)nc3c(F)c(-c4ccc(F)c5sc(N)c(C#N)c45)ncc23)[C@H]1COC (some centres unmarked) [Compound 26] | A (percent of modification ≥70%) | 100 to 1000 | – | A (percent of modification ≥70%) | A (percent of modification ≥70%) |
| C=CC(=O)N1CC[C@@H](N(C)c2nc(OC[C@@H]3CCCN3C)nc3c(F)c(-c4ccc(F)c5sc(N)c(C#N)c45)ncc23)[C@H]1COC [Compound 26] | – | – | ≤ 0.5 | – | – |
| C=CC(=O)N1CCC(N(C)c2nc(OCCOC)nc3c(F)c(-c4ccc(F)c5sc(N)c(C#N)c45)ncc23)[C@H]1C (some centres unmarked) [Compound 31] | D (percent of modification <10%) | > 1000 | – | C (10%≤percent of modification <50%) | D (percent of modification <10%) |
| C=CC(=O)N1CC[C@@H](N(C)c2nc(OCCOC)nc3c(F)c(-c4ccc(F)c5sc(N)c(C#N)c45)ncc23)[C@H]1C [Compound 31] | – | – | 0.5 to 5 | – | – |
| C=CC(=O)N1CCC(N(C)c2nc(OC)nc3c(F)c(-c4ccc(F)c5sc(N)c(C#N)c45)ncc23)[C@H]1C (some centres unmarked) [Compound 32] | D (percent of modification <10%) | > 1000 | – | C (10%≤percent of modification <50%) | D (percent of modification <10%) |
| C=CC(=O)N1CC[C@@H](N(C)c2nc(OC)nc3c(F)c(-c4ccc(F)c5sc(N)c(C#N)c45)ncc23)[C@H]1C [Compound 32] | – | – | 5 to 20 | – | – |
| C=CC(=O)N1CCC(N(C)c2nc(OCCO)nc3c(F)c(-c4ccc(F)c5sc(N)c(C#N)c45)ncc23)[C@H]1C (some centres unmarked) [Compound 35] | D (percent of modification <10%) | > 1000 | – | C (10%≤percent of modification <50%) | D (percent of modification <10%) |
| C=CC(=O)N1CC[C@@H](N(C)c2nc(OCCO)nc3c(F)c(-c4ccc(F)c5sc(N)c(C#N)c45)ncc23)[C@H]1C [Compound 35] | – | – | 5 to 20 | – | – |
| C=CC(=O)N1CCC(N(C)c2ncnc3c(F)c(-c4ccc(F)c5sc(N)c(C#N)c45)ncc23)[C@H]1C (some centres unmarked) [Compound 36] | D (percent of modification <10%) | > 1000 | – | C (10%≤percent of modification <50%) | D (percent of modification <10%) |
| C=CC(=O)N1CC[C@@H](N(C)c2ncnc3c(F)c(-c4ccc(F)c5sc(N)c(C#N)c45)ncc23)[C@H]1C [Compound 36] | – | – | 5 to 20 | – | – |
